Data as given in patent US11952365B2, “Anti-viral compounds” (Aligos Therapeutics, Inc., priority 2020, dated 2024).
Read-outs that look alike come from different tables or passages of the source.

Columns and labels:
[1] = molecular target: HRV3C (Human rhinovirus 14, UniProt P03303); test: HRV3C protease assay (duplex, SAMDI-MS); type: biochemical, HRV; details: 30 mins preincubation
Procedure: Protease assays were performed in 384-well low volume polypropylene microtiter plates at ambient temperature. For the duplex assay, 3CLpro and HRV3C was added using a Multidrop Combi (Thermo Scientific; Waltham, MA) and preincubated for 30 mins with small molecules. The reactions were initiated by the addition of the two peptide substrates. The reactions were incubated for 30 mins and quenched by the addition of 0.5% formic acid (final) with subsequent neutralization using 1% sodium bicarbonate (final). Internal standard peptides were added in 20 mM Hepes pH 8.0 for quantitation of the protease products. For SAMDI-MS analysis, 2 μL of each reaction mixture was transferred using a 384-channel automated liquid handler to SAMDI biochip arrays functionalized with a neutravidin-presenting self-assembled monolayer. The SAMDI arrays were incubated for 1 h in a humidified chamber to allow the specific immobilization of the biotinylated peptide substrates, cleaved products and internal standards. The samples were purified by washing the SAMDI arrays with deionized ultrafiltered water and dried with compressed air. A matrix comprising alpha-cyano cinnamic acid in 80% acetonitrile:20% aqueous ammonium citrate was applied in an automated format by dispensing 50 nL to each spot in the array. SAMDI-MS was performed using reflector-positive mode on an AB Sciex TOF-TOF 5800 System (AB Sciex, Framingham, MA) with 400 shots/spot analyzed in a random raster sampling. For data analysis, area under the curves (peaks) (AUCs) for the product and internal standard were calculated using the TOF/TOF Series Explorer (AB Sciex), and the amount of product formed was calculated using the equation (AUC product/AUC internal standard). The amount of product generated was calculated using the ratio of product area under the curve (AUC) divided by the AUC of the internal standard. Negative controls were pre-quenched with 0.5% formic acid final. Assay robustness was determined by Z-Factor. The IC50s were determined by fitting the curves using a four-parameter equation in Graphpad Prism 8.

[2] = Cytotoxicity plates without OC43 virus (cell-titer-glo); type: cell-based, human; details: human; HeLa cells without OC43 virus, class symbols
Procedure: The human beta-coronavirus OC43 was purchased from ATCC (Manassas, VA) and propagated using HCT-8 human colorectal epithelial cells (ATCC). HeLa human cervical epithelial cells (ATCC) were used as susceptible host cell lines and were cultured using EMEM media, supplemented with 10% fetal bovine serum (FBS), 1% (v/v) penicillin/streptomycin (P/S), 1% (v/v) HEPES and 1% (v/v) Cellgro Glutagro™ supplement (all Corning, Manassas, VA) at 37° C. For the OC43 antiviral assay, 1.5×10^4 HeLa cells per well were plated in 100 μL complete media in white 96-well plates with clear bottoms at 37° C. for up to 24 h to facilitate attachment and allow cells to recover from seeding stresses. Next day, the cell culture medium was removed. Serially diluted compounds in 100 μL assay media (EMEM, 2% FBS, 1% P/S, 1% Cellgro Glutagro™ supplement, 1% HEPES) were added to the cells and incubated for 4H at 37° C. in a humidified 5% CO2 incubator. 100 μL of OC43 virus stock was diluted to a concentration known to produce optimal cytopathic effect, inducing 80-90% reduction in cell viability. 96-well plates were incubated for 6 (HeLa) days at 33° C.; each plate contains uninfected control wells as well as virus-infected wells that were not treated with compound. Cytotoxicity plates without the addition of OC43 virus were carried out in parallel. At the end of the incubation period, 100 μL cell culture supernatant was replaced with 100 μL cell-titer-glo reagent (Promega, Madison, WI) and incubated for at least 10 min at rt prior to measuring luminescence. Luminescence was measured on a Perkin Elmer (Waltham, MA) Envision plate reader. Antiviral % inhibition was calculated as follows: [(Compound treated cells infected sample)−(no compound infected control)]/[(Uninfected control)−(no compound infected control)]*100; Using GraphPad (San Diego, CA) prism software version 8.3.1, the antiviral dose-response plot was generated as a sigmoidal fit, log(inhibitor) vs response-variable slope (four parameters) model and the EC50 was calculated which is the predicted compound concentration corresponding to a 50% inhibition of the viral cytopathic effect.

[3] = system: human beta-coronavirus OC43; test: microbe, parasite or virus in culture; type: cell-based; details: Betacoronavirus 1, OC43, HeLa, 144 h
[4] = in vitro; details: African green monkey, VeroE6 + CP (CC50), Vero E6-eGFP cells with CP-100356, absence of virus, MTS
[5] = system: SARS-CoV-2-GHB-03021/2020; test: microbe, parasite or virus in culture; type: cell-based; details: Severe acute respiratory syndrome coronavirus 2, Vero C1008, 96 h; read-out: VeroE6 + CP (EC50)
[6] = molecular target: 3CLpro (Severe acute respiratory syndrome coronavirus 2, UniProt P0DTD1); test: SARS-CoV-2 3CLpro protease assay (duplex, SAMDI-MS); type: biochemical; design: For the duplex assay, 3CLpro and HRV3C was added; details: 3CLpro, 30 mins preincubation, read-out: SARS-Cov-2 IC50
[7] = molecular target: T1, human cathepsin L (Homo sapiens, UniProt P07711); test: cathepsin L assay; type: biochemical; details: 10 pM human cathepsin L, Z-FR-AMC 2 μM, class symbols
T1 construct: purchased R&D Systems
Procedure: For the cathepsin L assay, 10 pM of human cathepsin L (R&D Systems; Minneapolis, MN) was preincubated for 30 mins with test compounds. Reactions were initiated by the addition of a peptide substrate Z-FR-AMC (final concentration 2 μM, Anaspec; Fremont, CA). Fluorescence was measured at 2-minute intervals for 30 mins using a 355/460 excitation/emission filter module on an Envision plate reader (Perkin Elmer; Waltham, MA). The IC50 values were calculated for each assay by fitting the curves using a four-parameter equation in GraphPad Prism.

[8] = OC43 in HeLa cells, 6 days at 33° C., class symbols, read-out: EC50
[9] = HRV3C, class symbols, read-out: HRV IC50

| Compound | IC50 ([1]; HRV IC50, HRV3C, class symbols) | CC50 at 6 days [2] | EC50 [3, 8] | CC50 ([4]; numeric bounds) | EC50 [5] | IC50 ([6]; class symbols) | IC50 [1, 9] | CC50 ([4]; class symbols) | IC50 [7] | IC50 ([1]; HRV IC50, HRV3C, bound) | EC50 [3] | IC50 ([6]; bound) |
| --- | --- | --- | --- | --- | --- | --- | --- | --- | --- | --- | --- | --- |
| O=C(NCc1ccccc1)C(=O)C(C[C@@H]1CCNC1=O)NC(=O)[C@@H]1CCCCN1C(=O)c1cc2ccccc2[nH]1 (stereo partly drawn) [Compound 1, (2S)—N-(4-(benzylamino)-3,4-dioxo-1-((S)-2-oxopyrrolidin-3-yl)butan-2-yl)-1-(1H-indole-2-carbonyl)piperidine-2-carboxamide] | 20000 to 100000 nM | > 10 µM | 1000 to 10000 nM | > 100 µM | > 100 µM | 2000 to 20000 nM | – | – | – | – | – | – |
| O=C(NCc1ccccc1)C(=O)C(C[C@@H]1CCNC1=O)NC(=O)[C@@H]1[C@H]2CCC[C@H]2CN1C(=O)c1cc2ccccc2[nH]1 (stereo partly drawn) [Compound 2, (1S,3aR,6aS)—N-(4-(benzylamino)-3,4-dioxo-1-((S)-2-oxopyrrolidin-3-yl)butan-2-yl)-2-(1H-indole-2-carbonyl)-octahydrocyclopenta[c]pyrrole-1-carboxamide] | – | > 10 µM | 100 to 1000 nM | – | 1 to 10 µM | 200 to 2000 nM | 2000 to 20000 nM | > 10 µM | 1000 to 10000 nM | – | – | – |
| CC1(C)[C@@H]2[C@@H](C(=O)NC(C[C@@H]3CCNC3=O)C(=O)C(=O)NCc3ccccc3)N(C(=O)c3cc4ccccc4[nH]3)C[C@@H]21 (stereo partly drawn) [Compound 4, N-benzyl-3-[[(1R,2S,5S)-3-(1H-indole-2-carbonyl)-6,6-dimethyl-3-azabicyclo[3.1.0]hexan-2-yl]formamido]-2-oxo-4-[(3S)-2-oxopyrrolidin-3-yl]butanamide] | – | > 10 µM | 1000 to 10000 nM | > 100 µM | 1 to 10 µM | 200 to 2000 nM | 2000 to 20000 nM | – | 100 to 1000 nM | – | – | – |
| O=C(NCc1ccccc1)C(=O)C(C[C@@H]1CCNC1=O)NC(=O)[C@@H]1C[C@@H](Oc2ccccc2)CN1C(=O)c1cc2ccccc2[nH]1 (some centres unmarked) [Compound 5] | 200 to 2000 nM | > 10 µM | 1000 to 10000 nM | > 100 µM | 10 to 100 µM | 20000 to 100000 nM | – | – | – | – | – | – |
| O=C(NCc1ccccc1)C(=O)C(C[C@@H]1CCNC1=O)NC(=O)[C@@H]1C[C@@H](OCc2ccccc2)CN1C(=O)c1cc2ccccc2[nH]1 (some centres unmarked) [Compound 6] | 200 to 2000 nM | > 10 µM | 1000 to 10000 nM | > 100 µM | > 100 µM | 2000 to 20000 nM | – | – | – | – | – | – |
| O=C(NCc1ccccc1)C(=O)C(C[C@@H]1CCNC1=O)NC(=O)[C@@H]1[C@H]2CC[C@H](C2)N1C(=O)c1cc2ccccc2[nH]1 (some centres unmarked) [Compound 8] | – | > 10 µM | 1000 to 10000 nM | > 100 µM | 10 to 100 µM | 200 to 2000 nM | 2000 to 20000 nM | – | 100 to 1000 nM | – | – | – |
| O=C(NCc1ccccc1)C(=O)C(C[C@@H]1CCNC1=O)NC(=O)[C@@H]1CC2(CC2)CN1C(=O)c1cc2ccccc2[nH]1 (some centres unmarked) [Compound 9] | – | > 10 µM | 100 to 1000 nM | > 100 µM | 1 to 10 µM | 20 to 200 nM | 2000 to 20000 nM | – | 100 to 1000 nM | – | – | – |
| CC(C)(C)O[C@@H]1C[C@@H](C(=O)NC(C[C@@H]2CCNC2=O)C(=O)C(=O)NCc2ccccc2)N(C(=O)c2cc3ccccc3[nH]2)C1 (some centres unmarked) [Compound 10] | 200 to 2000 nM | > 10 µM | 1000 to 10000 nM | > 100 µM | > 100 µM | 2000 to 20000 nM | – | – | – | – | – | – |
| CC1(C)C[C@@H](C(=O)NC(C[C@@H]2CCNC2=O)C(=O)C(=O)NCc2ccccc2)N(C(=O)c2cc3ccccc3[nH]2)C1 (some centres unmarked) [Compound 11] | – | > 10 µM | 1000 to 10000 nM | > 100 µM | 10 to 100 µM | 200 to 2000 nM | 2000 to 20000 nM | – | < 100 nM | – | – | – |
| CO[C@@H]1C[C@@H](C(=O)NC(C[C@@H]2CCNC2=O)C(=O)C(=O)NCc2ccccc2)N(C(=O)c2cc3ccccc3[nH]2)C1 (some centres unmarked) [Compound 12] | 20000 to 100000 nM | > 10 µM | 10000 to 100000 nM | > 100 µM | > 100 µM | 2000 to 20000 nM | – | – | – | – | – | – |
| O=C[C@H](C[C@@H]1CCNC1=O)NC(=O)[C@@H]1[C@H]2CCC[C@H]2CN1C(=O)c1cc2ccccc2[nH]1 [Compound 13, (1S,3aR,6aS)-2-(1H-indole-2-carbonyl)-N-[(2S)-1-oxo-3-[(3S)-2-oxopyrrolidin-3-yl]propan-2-yl]-hexahydro-1H-cyclopenta[c]pyrrole-1-carboxamide] | – | > 10 µM | 1000 to 10000 nM | > 100 µM | 1 to 10 µM | < 20 nM | 200 to 2000 nM | – | 1000 to 10000 nM | – | – | – |
| COc1cccc2[nH]c(C(=O)N3C[C@@H]4CCC[C@@H]4[C@H]3C(=O)N[C@H](C=O)C[C@@H]3CCNC3=O)cc12 [Compound 14A, (1S,3aR,6aS)-2-(4-methoxy-1H-indole-2-carbonyl)-N-[(2S)-1-oxo-3-[(3S)-2-oxopyrrolidin-3-yl]propan-2-yl]-hexahydro-1H-cyclopenta[c]pyrrole-1-carboxamide] | – | > 10 µM | 1000 to 10000 nM | > 100 µM | 10 to 100 µM | 20 to 200 nM | 200 to 2000 nM | – | ≥ 10000 nM | – | – | – |
| COc1cccc2[nH]c(C(=O)N3C[C@@H]4CCC[C@@H]4[C@H]3C(=O)N[C@@H](C[C@@H]3CCNC3=O)C(=O)c3cnc[nH]3)cc12 [Compound 74, (1S,3aR,6aS)—N-[(2S)-1-(3H-imidazol-4-yl)-1-oxo-3-[(3S)-2-oxopyrrolidin-3-yl]propan-2-yl]-2-(4-methoxy-1H-indole-2-carbonyl)-hexahydro-1H-cyclopenta[c]pyrrole-1-carboxamide] | – | > 10 µM | – | – | 10 to 100 µM | – | – | > 10 µM | ≥ 10000 nM | > 10000 nM | > 10000 nM | > 10000 nM |
